Marks after values point to notes of the source that are not given here.
Columns and labels:
[1] = system: carrageenan-induced paw oedema; assay: Carrageenan-induced rat paw oedema; format: in vivo; conditions: 50 mg/kg oral; for %Inhibition of paw oedema, 1h / Paw thickness change mean ± SEM, 1h: 1 h after carrageenan; for %Inhibition of paw oedema, 3h / Paw thickness change mean ± SEM, 3h: 3 h after carrageenan; for Paw thickness change mean ± SEM, 3h / Paw thickness change mean ± SEM, 1h / Paw thickness change mean ± SEM, 5h: n = 4; for %Inhibition of paw oedema, 5h / Paw thickness change mean ± SEM, 5h: 5 h after carrageenan
Experimental: Female wister rats (150-200 g) were used in this study. The animals were kept at controlled conditions (temperature 23 ± 2 °C, humidity 60 ± 10%) and a 12/12-h light/dark cycle with access to food and water. All procedures relating to animal care and treatments were performed according to protocols approved by the Research Ethical Committee of Faculty of Pharmacy Beni-Suef University (2014-Beni-Suef, Egypt). The anti-inflammatory activity of the synthesised compounds was determined in vivo by […]-induced paw oedema method in rats[49]. Rats were divided into 21 groups of four animals each, and then, they were fasted overnight with free access to water before the experiment. Before any drug administration, thickness of the left hind paw of each rat was measured in millimetres. Group 1 served as a control and administered the vehicle (2.5% Tween 80).

ovine COX-1 = target: T1, ovine COX-1 (Ovis aries, UniProt P05979); assay: In vitro COX-1 inhibition assay (EIA kit, Cayman)
T1 sequence (P05979 25-600): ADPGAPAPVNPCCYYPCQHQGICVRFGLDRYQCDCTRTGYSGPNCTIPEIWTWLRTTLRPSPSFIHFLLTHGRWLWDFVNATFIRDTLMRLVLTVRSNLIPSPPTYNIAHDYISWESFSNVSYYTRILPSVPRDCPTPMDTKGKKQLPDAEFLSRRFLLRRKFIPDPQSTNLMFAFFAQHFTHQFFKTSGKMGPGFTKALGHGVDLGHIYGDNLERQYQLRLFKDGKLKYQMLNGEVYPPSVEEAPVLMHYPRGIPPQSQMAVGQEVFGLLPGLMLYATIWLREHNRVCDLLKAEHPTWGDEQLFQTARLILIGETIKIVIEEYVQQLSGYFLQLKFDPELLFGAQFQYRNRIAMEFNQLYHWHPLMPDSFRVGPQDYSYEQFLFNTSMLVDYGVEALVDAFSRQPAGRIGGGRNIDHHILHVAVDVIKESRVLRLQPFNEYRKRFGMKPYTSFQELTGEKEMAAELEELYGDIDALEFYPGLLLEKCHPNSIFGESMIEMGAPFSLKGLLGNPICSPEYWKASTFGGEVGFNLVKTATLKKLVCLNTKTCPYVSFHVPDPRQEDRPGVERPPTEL
Experimental: (§1) The peroxidase activity of cyclooxygenase enzyme isoforms was measured using the COX activity assay kit. The ability of the test compounds to inhibit both ovine COX-1 and COX-2 enzymes was explored in vitro using a colorimetric enzyme immunoassay (EIA) kit. The appearance of oxidised N,N,N′,N′-tetramethyl-p-phenylenediamine (TMPD) was monitored at 590 nm. The kit includes isozyme-specific inhibitors for distinguishing COX-2 activity from that of COX-1.

ovine COX-2 = target: T2, ovine COX-2 (Ovis aries, UniProt P79208); assay: In vitro COX-2 inhibition assay (EIA kit, Cayman); conditions: for IC50: IC50 COX-2, ovine COX-2, mean of two determinations; for SI, COX-2 selectivity index (COX-1 IC50/COX-2 IC50): ovine enzymes
T2 sequence (P79208 17-603): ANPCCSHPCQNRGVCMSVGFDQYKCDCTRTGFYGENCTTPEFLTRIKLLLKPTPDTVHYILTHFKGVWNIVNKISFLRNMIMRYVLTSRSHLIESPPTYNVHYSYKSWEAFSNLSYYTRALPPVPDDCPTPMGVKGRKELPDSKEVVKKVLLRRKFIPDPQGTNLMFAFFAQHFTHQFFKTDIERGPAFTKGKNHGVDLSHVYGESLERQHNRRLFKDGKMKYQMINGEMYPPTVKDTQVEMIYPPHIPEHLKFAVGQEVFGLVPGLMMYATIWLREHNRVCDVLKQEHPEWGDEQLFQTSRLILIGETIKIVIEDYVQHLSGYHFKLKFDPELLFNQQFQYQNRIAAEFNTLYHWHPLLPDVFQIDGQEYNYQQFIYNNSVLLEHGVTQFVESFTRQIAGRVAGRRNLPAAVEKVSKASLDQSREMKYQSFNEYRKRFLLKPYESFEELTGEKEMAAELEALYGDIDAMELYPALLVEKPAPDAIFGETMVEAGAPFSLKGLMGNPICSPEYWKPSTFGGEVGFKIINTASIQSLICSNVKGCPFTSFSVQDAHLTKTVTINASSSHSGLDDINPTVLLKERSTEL
Experimental: as §1

[2] = system: gastric mucosa (ulcer number, ulcer index); assay: Ulcerogenic liability; format: in vivo, rat; conditions: 50 mg/kg oral, three successive days, rats; for Ulcer index: sum of % incidence, average severity and average number of ulcers
Experimental: Female wister rats (150–200 g) were used in this study. The animals were kept at controlled conditions (temperature 23 ± 2 °C, humidity 60 ± 10%) and a 12/12-h light/dark cycle with access to food and water. All procedures relating to animal care and treatments were performed according to protocols approved by the Research Ethical Committee of Faculty of Pharmacy Beni-Suef University (2014-Beni-Suef, Egypt).
[…]. Forty-eight rats were used in this study, divided into 12 groups and fasted for 18 h before drug administration. The control group received the vehicle (2.5% Tween 80). Other groups received test compounds, celecoxib or indomethacin at a dose of 50 mg/kg, then animals were fed after 2 h. Rats were given the specified dose orally for three successive days. Rats were sacrificed after 2 h of the last dose, then the stomach of each rat was removed and opened along the greater curvature for determination of the ulcer number and ulcer index according to the reported method.

rat's gastric tissue = assay: Histopathological investigation of stomach; format: in vivo; conditions: haematoxylin and eosin, after ulcerogenic liability dosing
Experimental: Whole rats stomach were collected, selected stomach samples from each rat were fixed in 10% neutral buffered formalin for 48 h and routinely processed for paraffin embedding. 5 μm Thickness sections were obtained then stained with haematoxylin and eosin for histopathological evaluation.

SMILES | %Inhibition of paw oedema, 1h [1] [%] | %Inhibition of paw oedema, 3h [1] [%] | Paw thickness change mean ± SEM, 3h [1] [mm] | melting point [°C] | IC50 (ovine COX-1) [µM] | IC50 (ovine COX-2) [µM] | SI, COX-2 selectivity index (COX-1 IC50/COX-2 IC50) (ovine COX-2) | Paw thickness change mean ± SEM, 1h [1] [mm] | %Inhibition of paw oedema, 5h [1] [%] | Paw thickness change mean ± SEM, 5h [1] [mm] | Average number of ulcers [2] | Ulcer index [2] | Ulcer index ([2]; listed as indomethacin) | Histopathological findings in stomach (rat's gastric tissue)
COc1ccc(/C=C/C(=O)c2ccc(-n3cnnn3)cc2)cc1OC [Compound 3a, (ZE)-1-[4-(1H-Tetrazol-1-yl)phenyl]-3-(3,4-dimethoxyphenyl)prop-2-en-1-one] | 25 | 9 | 1.53 ± 0.09 | 214 to 216 | 12.5 | 0.57 | 22 |  |  |  |  |  |  | 
COc1cc(/C=C/C(=O)c2ccc(-n3cnnn3)cc2)cc(OC)c1OC [Compound 3b, (ZE)-1-[4-(1H-Tetrazol-1-yl)phenyl]-3-(3,4,5-trimethoxyphenyl)prop-2-en-1-one] | 54 | 13 | 1.45 ± 0.18 | 215 to 217 | 6.74 | 0.24 | 28.08 | 0.73 ± 0.08 | 0 | 1.33 ± 0.08 |  |  |  | 
N#Cc1c(-c2ccccc2)cc(-c2ccc(-n3cnnn3)cc2)nc1N [Compound 4a, 6-[4-(1H-Tetrazol-1-yl)phenyl]-2-amino-4-phenylnicotinonitrile] | 51 | 10 | 1.50 ± 0.19 | 238 to 240 | 6.23 | 0.43 | 14.48 | 0.78 ± 0.08 | 0 | 1.33 ± 0.05 |  |  |  | 
N#Cc1c(-c2cccnc2)cc(-c2ccc(-n3cnnn3)cc2)nc1N [Compound 4b, 6′-[4-(1H-Tetrazol-1-yl)phenyl]-2′-amino-[3,4′-bipyridine]-3′-carbonitrile] | 19 | 9 | 1.53 ± 0.08 | 238 to 240 | 6.11 | 0.27 | 22.62 | 1.28 ± 0.10 | 4 | 1.28 ± 0.14 |  |  |  | 
N#Cc1c(-c2cccnc2)cc(-c2ccc(-n3cnnn3)cc2)nc1O [Compound 5b, 6′-[4-(1H-Tetrazol-1-yl)phenyl]-2′-hydroxy-[3,4′-bipyridine]-3′-carbonitrile] | 38 | 33 | 1.13 ± 0.15 | 287 to 289 | 12.4 | 1.14 | 10.88 | 0.98 ± 0.18 | 17 | 1.10 ± 0.15 |  |  |  | 
COc1ccc(-c2cc(-c3ccc(-n4cnnn4)cc3)[nH]c(=O)c2C#N)cc1 [Compound 5c, 6-[4-(1H-Tetrazol-1-yl)phenyl]-4-(4-methoxyphenyl)-2-oxo-1,2-dihydropyridine-3-carbonitrile] | 57 | 30 | 1.18 ± 0.11 | > 300 | 11.2 | 0.71 | 15.81 | 0.68 ± 0.09 | 14 | 1.15 ± 0.05 |  |  |  | 
C/C(=N\Nc1ccc(S(C)(=O)=O)cc1)c1ccc(-n2cnnn2)cc1 [Compound 6a, (ZE)-1-{4-[1-(2-(4-Methanesulphonylphenyl)hydrazono)ethyl]phe-nyl}-1H-tetrazole] | 30 | 42 | 0.98 ± 0.23 | 258 to 260 | 9.21 | 0.38 | 24.23 | 1.10 ± 0.23 | 4 | 1.28 ± 0.08 |  |  |  | 
C/C(=N\Nc1ccc(S(N)(=O)=O)cc1)c1ccc(-n2cnnn2)cc1 [Compound 6b] |  | 37 | 1.05 ± 0.09 | 255 to 257 | 12.9 | 0.51 | 25.27 | 0.80 ± 0.26 | 12 | 1.18 ± 0.13 |  |  |  | 
COc1ccc(/C=C/C(=O)c2ccc(NC#N)cc2)cc1OC [Compound 7a, (ZE)-N-{4-[3–(3,4-Dimethoxyphenyl)acryloyl]phenyl}cyanamide] | 24 | 22 | 1.30 ± 0.15 | 112 to 114 | 3.45 | 0.26 | 13.26 | 1.20 ± 0.11 | 0 | 1.33 ± 0.08 |  |  |  | 
COc1cc(/C=C/C(=O)c2ccc(NC#N)cc2)cc(OC)c1OC [Compound 7b, (ZE)-N-{4-[3–(3,4,5-Trimethoxyphenyl)acryloyl]phenyl}cyanamide] | 32 | 43 | 0.95 ± 0.17 | 109 to 111 | 3.52 | 0.24 | 14.66 | 1.08 ± 0.11 | 0 | 1.33 ± 0.08 |  |  |  | 
COc1ccc2c(c1)c(CC(=O)O)c(C)n2C(=O)c1ccc(Cl)cc1 [Indomethacin, reference compound] |  |  |  |  |  |  |  |  |  |  | 14.25*** | 22.50*** | 22.5 | Complete disruption of protective mucosal layer

From PMC6445242, “Novel tetrazole and cyanamide derivatives as inhibitors of cyclooxygenase-2 enzyme: design, synthesis, anti-inflammatory evaluation, ulcerogenic liability and docking study” (Journal of Enzyme Inhibition and Medicinal Chemistry, 2017)
